# Data as given in US4098798A, “Adriamycins, process for their preparation and uses thereof” (Societa' Farmaceutici Italia S.p.A., priority 1974, dated 1978).
# Read-outs that look alike come from different tables or passages of the source.
# Assays:
# [1] = tested on: Moloney Sarcoma Virus (MSV); experiment: MSV foci formation in infected mouse embryo fibroblast cultures (antiviral action); format: cell-based; conditions: 72 h, treatment of 3 days, read-out: Antiviral Action ID50
# Method: (§1) The test compounds were evaluated on mouse embryo fibroblast cultures infected with MSV and on similar uninfected cultures. After a treatment of 3 days, the inhibiting doses (ID50) were evaluated on cell proliferation in uninfected cultures (cytotoxic action) and on MSV foci formation in infected cultures (antiviral action).
# [2] = cell proliferation in uninfected mouse embryo fibroblast cultures (cytotoxic action); format: cell-based; conditions: mouse embryo fibroblasts, treatment of 3 days, read-out: Cytotoxic Action ID50
# Method: as §1
# MSV = experiment: Activity on MSV Production, focus assay; format: cell-based, Moloney Sarcoma Virus; conditions: 0.05 γ/ml, 3 days; control 4.7 × 10^4
# Method: MSV infected cultures were treated for 3 days, and the virus yields were determined in the cell and supernatant medium by focus assay in the presence of leukemia virus.
# B-subtilis = experiment: inhibition zones on agar-B-subtilis plates, paper disc technique; format: cell-based; conditions: hydrochlorides, read-out: inhibition zone diameter; for zone of inhibition at 10 µg/disc: 10 μg; for zone of inhibition at 20 µg/disc: 20 μg; for zone of inhibition at 5 µg/disc: 5 μg; for zone of inhibition at 15 µg/disc: 15 μg
# Ascites Sarcoma 180 = experiment: Action on Ascites Sarcoma 180 in mice; format: in vivo, mice (Swiss CD 1); conditions: for Average Survival time: one day after inoculation, untreated = 100%
# Method: The tests were carried out on groups of 10 mice (Swiss CD 1). The compounds under examination were administered intraperitoneally in varying doses to the test animals one day after intraperitoneal inoculation with 1 × 10^6 tumor cells per animal. The average survival time is given in Table 1 as a percentage of the survival time of untreated animals, which is arbitrarily designated as 100%. Also given in Table 1 are the number of long term survivors.
# [3] = tested on: Transplanted Gross Leukemia; experiment: Action on Transplanted Gross Leukemia in mice; format: in vivo, C3 H/He mice; conditions: first to fifth day
# Text: Inbred C3 H/He mice were intravenously inoculated with […] leukemia cells/mouse and treated, intravenously, from the first to the fifth day after inoculation with the compounds under examination.
# L1210 Leukemia = experiment: Action on L1210 Leukemia in mice; format: in vivo, BDF1 mice; conditions: 5 times every two hours on days 1 and 2
# Text: Inbred BDF1 mice were intraperitoneally inoculated with 10^5 leukemia cells/mouse, and then treated (intraperitoneally) 5 times (every two hours) on days 1 and 2 after the tumor inoculation with varying doses of the compounds under examination.
# Solid Sarcoma 180 = experiment: Activity on Solid Sarcoma 180 in mice; format: in vivo, Swiss CD 1 mice; conditions: for % Inhibition tumor growth: 10th day
# HeLa cells = experiment: Cloning Efficiency of Hela cells in vitro; format: cell-based; conditions: for IC50: Homo sapiens, HeLa, 50% inhibition of colonies
# Method: After treatment for 2,8 or 24 hours, HeLa cells were seeded (200 cells per plate) and the number of colonies determined 8 days later.
# The ID50 represents the dose which gives a 50% of inhibition of colonies.
# [4] = Cardiotoxic activity in vitro, beating of myocardial cells; format: cell-based, mice; conditions: mouse, 0.5 μg/ml, read-out: decrease of beating
# [5] = 1.25 mg/Kg subcutaneously every 2 hrs for 5 times at days 1 and 3
# [6] = 1.75 mg/Kg subcutaneously every 2 hrs for 5 times at days 1 and 3
# [7] = 2 mg/Kg intravenously twice a day on days 1,2,3
# [8] = 2.45 mg/Kg subcutaneously every 2 hrs for 5 times at days 1 and 3
# [9] = 2.5 mg/Kg intravenously once a day on days 1,2,3,4,5
# [10] = 2.5 mg/Kg intravenously twice a day on days 1,2,3
# [11] = 3 mg/Kg intravenously twice a day on days 1,2,3
# [12] = Table 7, 2h treatment, read-out: DI50 (the source's name)
# [13] = Table 7, 8h treatment, read-out: DI50 (the source's name)
# [14] = Table 7, 24h treatment, read-out: DI50 (the source's name)
# [15] = Table 8, 2h treatment, read-out: DI 50 (the source's name)
# [16] = Table 8, 8h treatment, read-out: DI 50 (the source's name)
# [17] = Table 8, 24h treatment, read-out: DI 50 (the source's name)
# [18] = Table 7, 0.1 μg/ml, 8h, control 125
# [19] = Table 7, 0.1 μg/ml, 24h, control 223
# [20] = Table 7, 0.25 μg/ml, 8h, control 125
# [21] = Table 7, 0.25 μg/ml, 24h, control 223
# [22] = Table 7, 0.5 μg/ml, 8h, control 125
# [23] = Table 7, 0.5 μg/ml, 24h, control 223
# [24] = Table 7, 1 μg/ml, 2h, control 132
# [25] = Table 7, 1 μg/ml, 8h, control 125
# [26] = Table 7, 1 μg/ml, 24h, control 223
# [27] = Table 8, 0.125 μg/ml, 2h, control 156
# [28] = Table 8, 0.25 μg/ml, 8h, control 189
# [29] = Table 8, 0.25 μg/ml, 24h, control 136
# [30] = Table 8, 0.5 μg/ml, 2h, control 156
# [31] = Table 8, 0.5 μg/ml, 8h, control 189
structure (smiles),measurement,setting,value
COc1cccc2c1C(=O)c1c(O)c3c(c(O)c1C2=O)CC(O)(C(=O)CO)CC3OC1CC(N)C(O)C(C)O1 (stereo not drawn) [4'-Epi-adriamycin],IC50,[1],> 0.006 µg/mL
same,CC50 at 72 h,[2],0.01 µg/mL
same,virus yield (FFU/ml),MSV,4 × 10^2 FFU/ml
"COc1cccc2c1C(=O)c1c(O)c3c(c(O)c1C2=O)C[C@@](O)(C(=O)CO)C[C@@H]3O[C@H]1C[C@H](N)[C@H](O)[C@H](C)O1 [Adriamycin, 7-0-(3'-amino-2',3',6'-trideoxy-α-L-lyxohexopyranosyl)-adriamycinone]",zone of inhibition at 10 µg/disc,B-subtilis,21 mm
same,zone of inhibition at 20 µg/disc,B-subtilis,23 mm
same,Long Term Survivors (after 60 days),Ascites Sarcoma 180; 1 mg/Kg i.p.,0/10
same,Average Survival time,Ascites Sarcoma 180; 1 mg/Kg i.p.,169%
same,Long Term Survivors (after 60 days),Ascites Sarcoma 180; 5 mg/Kg i.p.,2/10
same,Average Survival time,Ascites Sarcoma 180; 5 mg/Kg i.p.,276%
same,Long Term Survivors (after 60 days),[3]; 2 mg/Kg i.v.,0/10
same,"Average Survival time, Exp. 1",[3]; 2 mg/Kg i.v.,183%
same,Long Term Survivors (after 60 days),[3]; 2.5 mg/Kg i.v.,0/20
same,"Average Survival time, Exp. 1",[3]; 2.5 mg/Kg i.v.,208%
same,"Average Survival time, Exp. 2",[3]; 2.5 mg/Kg i.v.,186%
same,Long Term Survivors (after 60 days),[3]; 2.75 mg/Kg i.v.,0/10
same,"Average Survival time, Exp. 1",[3]; 2.75 mg/Kg i.v.,208%
same,Long Term Survivors (after 60 days),[3]; 3 mg/Kg i.v.,0/10
same,"Average Survival time, Exp. 2",[3]; 3 mg/Kg i.v.,186%
same,Long Term Survivors (after 60 days),[3]; 3.6 mg/Kg i.v.,0/10
same,"Average Survival time, Exp. 2",[3]; 3.6 mg/Kg i.v.,200%
same,Average Survival time,L1210 Leukemia; 0.75 mg/Kg i.p.,160%
same,Average Survival time,L1210 Leukemia; 1 mg/Kg i.p.,155%
same,Long Term Survivors (after 60 days),L1210 Leukemia; 1 mg/Kg i.p.,1/10
same,Average Survival time,L1210 Leukemia; 1.25 mg/Kg i.p.,175%
same,Average Survival time,Solid Sarcoma 180; [5],112%
same,Toxic Deaths (at 10th day),Solid Sarcoma 180; [5],0/10
same,% Inhibition tumor growth,Solid Sarcoma 180; [5],69%
same,Average Survival time,Solid Sarcoma 180; [6],87%
same,Toxic Deaths (at 10th day),Solid Sarcoma 180; [6],1/10
same,% Inhibition tumor growth,Solid Sarcoma 180; [6],75%
same,Average Survival time,Solid Sarcoma 180; [7],100%
same,Toxic Deaths (at 10th day),Solid Sarcoma 180; [7],1/10
same,% Inhibition tumor growth,Solid Sarcoma 180; [7],70%
same,Average Survival time,Solid Sarcoma 180; [8],32%
same,Toxic Deaths (at 10th day),Solid Sarcoma 180; [8],6/10
same,Toxic Deaths (at 10th day),Solid Sarcoma 180; [9],0/10
same,% Inhibition tumor growth,Solid Sarcoma 180; [9],54%
same,Average Survival time,Solid Sarcoma 180; [10],100%
same,Toxic Deaths (at 10th day),Solid Sarcoma 180; [10],2/10
same,% Inhibition tumor growth,Solid Sarcoma 180; [10],71%
same,Average Survival time,Solid Sarcoma 180; [11],57%
same,Toxic Deaths (at 10th day),Solid Sarcoma 180; [11],6/10
same,Toxic Deaths (at 10th day),"Solid Sarcoma 180; 3.5 mg/Kg intravenously once a day on days 1,2,3,4,5",7/10
same,IC50,[1],0.005 µg/mL
same,CC50 at 72 h,[2],0.01 µg/mL
same,IC50,HeLa cells; [12],0.17 µg/mL
same,IC50,HeLa cells; [13],0.14 µg/mL
same,IC50,HeLa cells; [14],0.016 µg/mL
same,IC50,HeLa cells; [15],0.35 µg/mL
same,IC50,HeLa cells; [16],0.18 µg/mL
same,IC50,HeLa cells; [17],0.125 µg/mL
same,Average Number of Colonies,"HeLa cells; Table 7, 0.05 μg/ml, 24h, control 223",76
same,Average Number of Colonies,"HeLa cells; Table 7, 0.1 μg/ml, 2h, control 132",79
same,Average Number of Colonies,HeLa cells; [18],73
same,Average Number of Colonies,HeLa cells; [19],48
same,Average Number of Colonies,"HeLa cells; Table 7, 0.25 μg/ml, 2h, control 132",46
same,Average Number of Colonies,HeLa cells; [20],38
same,Average Number of Colonies,HeLa cells; [21],20
same,Average Number of Colonies,"HeLa cells; Table 7, 0.5 μg/ml, 2h, control 132",42
same,Average Number of Colonies,HeLa cells; [22],16
same,Average Number of Colonies,HeLa cells; [23],0
same,Average Number of Colonies,HeLa cells; [24],21
same,Average Number of Colonies,HeLa cells; [25],8
same,Average Number of Colonies,HeLa cells; [26],0
same,Average Number of Colonies,HeLa cells; [27],166
same,Average Number of Colonies,"HeLa cells; Table 8, 0.125 μg/ml, 24h, control 136",69
same,Average Number of Colonies,"HeLa cells; Table 8, 0.25 μg/ml, 2h, control 156",92
same,Average Number of Colonies,HeLa cells; [28],28
same,Average Number of Colonies,HeLa cells; [29],43
same,Average Number of Colonies,HeLa cells; [30],27
same,Average Number of Colonies,HeLa cells; [31],14
same,inhibition at 2 h,[4],50%
"COc1cccc2c1C(=O)c1c(O)c3c(c(O)c1C2=O)C[C@@](O)(C(=O)CO)C[C@@H]3O[C@@H]1C[C@H](N)[C@@H](O)[C@H](C)O1 [4'-epi-adriamycin (β-anomer), 7-0-(3'-amino-2',3',6'-trideoxy-β-L-arabinohexopyranosyl)-adriamycinone]",zone of inhibition at 5 µg/disc,B-subtilis,15 mm
same,zone of inhibition at 10 µg/disc,B-subtilis,15.5 mm
same,zone of inhibition at 15 µg/disc,B-subtilis,16 mm
same,zone of inhibition at 20 µg/disc,B-subtilis,17 mm
"COc1cccc2c1C(=O)c1c(O)c3c(c(O)c1C2=O)C[C@@](O)(C(=O)CO)C[C@@H]3O[C@H]1C[C@H](N)[C@@H](O)[C@H](C)O1 [4'-Epi-adriamycin (α-anomer), 7-0-(3'-amino-2',3',6'-trideoxy-α-L-arabinohexopyranosyl)-adriamycinone]",zone of inhibition at 5 µg/disc,B-subtilis,19 mm
same,zone of inhibition at 10 µg/disc,B-subtilis,21 mm
same,zone of inhibition at 15 µg/disc,B-subtilis,22 mm
same,zone of inhibition at 20 µg/disc,B-subtilis,23 mm
same,Long Term Survivors (after 60 days),Ascites Sarcoma 180; 0.5 mg/Kg i.p.,0/10
same,Average Survival time,Ascites Sarcoma 180; 0.5 mg/Kg i.p.,135%
same,Long Term Survivors (after 60 days),Ascites Sarcoma 180; 2 mg/Kg i.p.,0/10
same,Average Survival time,Ascites Sarcoma 180; 2 mg/Kg i.p.,184%
same,Long Term Survivors (after 60 days),Ascites Sarcoma 180; 10 mg/Kg i.p.,1/8
same,Average Survival time,Ascites Sarcoma 180; 10 mg/Kg i.p.,234%
same,IC50,HeLa cells; [12],0.85 µg/mL
same,IC50,HeLa cells; [13],0.7 µg/mL
same,IC50,HeLa cells; [14],0.36 µg/mL
same,IC50,HeLa cells; [15],5 µg/mL
same,IC50,HeLa cells; [16],0.2 µg/mL
same,IC50,HeLa cells; [17],0.2 µg/mL
same,Average Number of Colonies,HeLa cells; [18],158
same,Average Number of Colonies,HeLa cells; [19],216
same,Average Number of Colonies,HeLa cells; [20],150
same,Average Number of Colonies,HeLa cells; [21],199
same,Average Number of Colonies,HeLa cells; [22],92
same,Average Number of Colonies,HeLa cells; [23],52
same,Average Number of Colonies,HeLa cells; [24],57
same,Average Number of Colonies,HeLa cells; [25],36
same,Average Number of Colonies,HeLa cells; [26],29
same,Average Number of Colonies,HeLa cells; [27],245
same,Average Number of Colonies,"HeLa cells; Table 8, 0.125 μg/ml, 8h, control 189",170
same,Average Number of Colonies,HeLa cells; [28],43
same,Average Number of Colonies,HeLa cells; [29],46
same,Average Number of Colonies,HeLa cells; [30],130
same,Average Number of Colonies,HeLa cells; [31],45
same,Average Number of Colonies,"HeLa cells; Table 8, 0.5 μg/ml, 24h, control 136",38
same,Average Number of Colonies,"HeLa cells; Table 8, 1 μg/ml, 8h, control 189",27
same,Average Number of Colonies,"HeLa cells; Table 8, 1 μg/ml, 24h, control 136",17
